Results taken from US3984432A, “Color photographic recording material” (priority 1973, dated 1976).
Values belong to the compound of their own block, whether it stands above or below them.

Assay: Absorption maximum after colour development in a photographic silver halide layer according to Use Example I
Assay type: physicochemical
Conditions: for Abs.max., first of two maxima (subsidiary maximum) / Abs.max., second of two maxima (absorption maximum): pyrazolone coupling agents
Protocol: The compounds of the formulae which follow are prepared according to methods which are in themselves known, from the corresponding 4-equivalentcoupling agents (the corresponding compounds with hydrogen in the position marked with *, in place of the substituents drawn). With regard to methods of manufacture, compare DT-OS or DT-AS 1,236,332, 2,043,271, 1,547,672 or 1,187,477. Next to the formula, the absorption maximum in nm is specified in each case (see footnote to Table I). ##SPC8##
*)After colour development of the coupling agents in a photographic silve
halide layer according to Use Example I
0.3 mmol of coupling agent of the formula (215) is dissolved in 2.0 ml of tricresyl phosphate/methylene chloride (3:7). The methylene chloride is evaporated off, 6.0 ml of an 8% strength aqueous solution of sodium isopropylnaphthalene-sulphonate, 20.0 ml of 6% strength gelatine solution and 3.4 ml of water are added and the mixture is adjusted to pH 6.5 and emulsified for 5 minutes by means of an ultrasonic apparatus with an output of 100 watt.
5.0 of coupling agent emulsion freshly treated with ultrasonics, 3.3 ml of silver bromide emulsion of pH 6.5, containing 1.4% of silver and 6.0% of gelatine, 2.0 ml of 1% strength aqueous solution of the hardener of the formula [formula] and 1.7 ml of water are mixed with one another and cast at 40°C on a substrated glass plate of size 13 cm × 18 cm. After solidifying at 10° C, the plate is dried in a drying cabinet with circulating air at 32° C.
A strip cut to 4.0 cm × 6.5 cm is exposed to 500 Lux/cm^2 under a step wedge for 2 seconds and is subsequently treated at 24° C as follows: […]

SMILES: CCCCOP(=O)(CCCOc1cccc(C(=O)Nc2cccc(NC3=NN(c4ccc(S(=O)(=O)N(CC)CC)cc4)C(=O)C3)c2)c1)OCCCC [(427)]
Abs.max., first of two maxima (subsidiary maximum): 431 nm
Abs.max., second of two maxima (absorption maximum): 538 nm

SMILES: CCOP(=O)(CCCOc1cccc(C(=O)Nc2cccc(C(=O)CC(=O)Nc3cc(C)ccc3OC)c2)c1)OCC [(112)]
Abs.max. (single maximum): 440 nm

SMILES: CCCCOP(=O)(CCCOc1cccc(NC2=NN(c3cccc(Cl)c3)C(=O)C2)c1)OCCCC [(411)]
Abs.max., first of two maxima (subsidiary maximum): 428 nm
Abs.max., second of two maxima (absorption maximum): 532 nm

SMILES: CCCCOP(=O)(CC(=O)Nc1cccc(NC(=O)CC(=O)C(C)(C)C)c1)OCCCC [(105)]
Abs.max. (single maximum): 436 nm

Abs.max., first of two maxima (subsidiary maximum): 440 nm
Abs.max., second of two maxima (absorption maximum): 536 nm
SMILES: CCCCC(CC)COP(=O)(CCCOc1cccc(C(=O)Nc2cccc(C(=O)NC3=NN(c4c(C)cc(C)cc4Cl)C(=O)C3)c2)c1)OCC(CC)CCCC (centres unmarked) [(262)]

SMILES: CCCCOP(=O)(CCCOc1cc(OCCCP(=O)(OCCCC)OCCCC)cc(C(=O)Nc2cccc(C(=O)NC3=NN(c4c(Cl)cc(OC)cc4Cl)C(=O)C3)c2)c1)OCCCC [(266)]
Abs.max., first of two maxima (subsidiary maximum): 436 nm
Abs.max., second of two maxima (absorption maximum): 540 nm

SMILES: CCOP(=O)(OCC)C(C)(C)NC(=O)c1cccc(NC(=O)c2cccc(NC(=O)CC(=O)c3ccccc3)c2)c1 [(107)]
Abs.max. (single maximum): 444 nm

SMILES: CCCCOP(=O)(CCCC)Oc1cccc(NC(=O)Cc2ccc(NC(=O)CC(=O)c3ccccc3Cl)cc2)c1 (centres unmarked) [(138)]
Abs.max. (single maximum): 442 nm

SMILES: CC(C)OP(=O)(CCCOc1cccc(C(=O)NC2=NN(c3c(Cl)cc(Cl)cc3Cl)C(=O)C2)c1)OC(C)C [(217)]
Abs.max., first of two maxima (subsidiary maximum): 435 nm
Abs.max., second of two maxima (absorption maximum): 538 nm

SMILES: CCOP(=O)(CCCCCOc1cccc(C(=O)Nc2cccc(C(=O)NC3=NN(c4ccccc4)C(=O)C3)c2)c1)OCC [(227)]
Abs.max., first of two maxima (subsidiary maximum): 438 nm
Abs.max., second of two maxima (absorption maximum): 532 nm

SMILES: CCCCOP(=O)(CCCc1ccc(NC(=O)C(Cl)C(=O)c2ccccc2)cc1)OCCCC (centres unmarked) [(147)]
Abs.max. (single maximum): 436 nm

SMILES: CCOP(=O)(CCCOc1ccc(C(=O)Nc2cccc(C(=O)NC3=NN(c4c(Cl)cc(Cl)cc4Cl)C(=O)C3)c2)cc1)OCC [(206)]
Abs.max., first of two maxima (subsidiary maximum): 434 nm
Abs.max., second of two maxima (absorption maximum): 542 nm

SMILES: CCOP(=O)(CCCOc1cccc(C(=O)Nc2c(C)cc(C)c(N3N=C(Nc4ccc(Cl)cc4)CC3=O)c2C)c1)OCC [(425)]
Abs.max., first of two maxima (subsidiary maximum): 430 nm
Abs.max., second of two maxima (absorption maximum): 530 nm

SMILES: CC(C)OP(=O)(CCCCCOc1cccc(C(=O)Nc2cccc(C(=O)NC3=NN(c4ccccc4)C(=O)C3)c2)c1)OC(C)C [(246)]
Abs.max., first of two maxima (subsidiary maximum): 440 nm
Abs.max., second of two maxima (absorption maximum): 532 nm

SMILES: CCCCOP(=O)(CCCOc1cccc(C(=O)NC2=NN(c3c(Cl)cc(Cl)cc3Cl)C(=O)C2)c1)OCCCC [(237)]
Abs.max., first of two maxima (subsidiary maximum): 432 nm
Abs.max., second of two maxima (absorption maximum): 536 nm

SMILES: CCOP(=O)(CCCOc1cccc(NC2=NN(c3ccccc3)C(=O)C2)c1)OCC [(401)]
Abs.max., first of two maxima (subsidiary maximum): 429 nm
Abs.max., second of two maxima (absorption maximum): 524 nm

SMILES: CCCCOP(=O)(CCCOc1cccc(C(=O)Nc2cccc(NC3=NN(c4ccc(S(C)(=O)=O)cc4)C(=O)C3)c2)c1)OCCCC [(429)]
Abs.max., first of two maxima (subsidiary maximum): 430 nm
Abs.max., second of two maxima (absorption maximum): 538 nm

SMILES: COc1ccc(C(=O)NCCCP(=O)(OC(C)C)OC(C)C)cc1NC(=O)CC(=O)c1ccc(Cl)cc1 [(127)]
Abs.max. (single maximum): 444 nm

SMILES: CC(C)OP(=O)(CCCOc1cccc(C(=O)Nc2ccc(C(=O)NC3=NN(c4c(Cl)cc(Cl)cc4Cl)C(=O)C3)cc2)c1)OC(C)C [(210)]
Abs.max., first of two maxima (subsidiary maximum): 434 nm
Abs.max., second of two maxima (absorption maximum): 543 nm

SMILES: CC(C)OP(=O)(CCCOc1cc(OCCCP(=O)(OC(C)C)OC(C)C)cc(C(=O)Nc2cccc(C(=O)NC3=NN(c4c(Cl)cc(Cl)cc4Cl)C(=O)C3)c2)c1)OC(C)C [(240)]
Abs.max., first of two maxima (subsidiary maximum): 434 nm
Abs.max., second of two maxima (absorption maximum): 544 nm

SMILES: CCOP(=O)(CCCOc1cccc(C(=O)Nc2cccc(NC3=NN(c4ccccc4)C(=O)C3)c2)c1)OCC [(414)]
Abs.max., first of two maxima (subsidiary maximum): 430 nm
Abs.max., second of two maxima (absorption maximum): 530 nm

SMILES: CCCCOP(=O)(CCCc1ccc(NC(=O)c2ccc(OC)c(NC(=O)CC(=O)C(C)(C)C)c2)cc1)OCCCC [(118)]
Abs.max. (single maximum): 438 nm

SMILES: CC(C)OP(=O)(CCCCCOc1cc(OCCCCCP(=O)(OC(C)C)OC(C)C)cc(C(=O)Nc2cccc(C(=O)NC3=NN(c4ccccc4)C(=O)C3)c2)c1)OC(C)C [(239)]
Abs.max., first of two maxima (subsidiary maximum): 440 nm
Abs.max., second of two maxima (absorption maximum): 532 nm

SMILES: CCCCOP(=O)(CCCOc1cccc(NC2=NN(c3c(Cl)cc(Cl)cc3Cl)C(=O)C2)c1)OCCCC [(409)]
Abs.max., first of two maxima (subsidiary maximum): 426 nm
Abs.max., second of two maxima (absorption maximum): 530 nm

SMILES: CCCCOP(=O)(CCCOc1cccc(C(=O)Nc2cccc(NC3=NN(c4c(Cl)cc(Cl)cc4Cl)C(=O)C3)c2)c1)OCCCC [(419)]
Abs.max., first of two maxima (subsidiary maximum): 427 nm
Abs.max., second of two maxima (absorption maximum): 532 nm

SMILES: CCCCOP(=O)(CCCOc1cccc(C(=O)Nc2cccc(C(=O)CC(=O)Nc3cc(C)ccc3OC)c2)c1)OCCCC [(121)]
Abs.max. (single maximum): 434 nm

SMILES: CCCCOP(=O)(CCCOc1cc(OCCCP(=O)(OCCCC)OCCCC)cc(C(=O)Nc2cccc(C(=O)NC3=NN(c4c(Cl)cc(Cl)cc4OC)C(=O)C3)c2)c1)OCCCC [(265)]
Abs.max., first of two maxima (subsidiary maximum): 436 nm
Abs.max., second of two maxima (absorption maximum): 537 nm

SMILES: CCCCOP(=O)(CCCOc1cccc(C(=O)Nc2cccc(NC3=NN(c4ccccc4)C(=O)C3)c2)c1)OCCCC [(418)]
Abs.max., first of two maxima (subsidiary maximum): 430 nm
Abs.max., second of two maxima (absorption maximum): 530 nm

SMILES: CCOP(=O)(CCCOc1ccc(C(=O)NC2=NN(c3c(Cl)cc(Cl)cc3Cl)C(=O)C2)cc1)OCC [(204)]
Abs.max., first of two maxima (subsidiary maximum): 434 nm
Abs.max., second of two maxima (absorption maximum): 534 nm

Abs.max., first of two maxima (subsidiary maximum): 430 nm
Abs.max., second of two maxima (absorption maximum): 546 nm
SMILES: CCCCC(CC)COP(=O)(CCCOc1cccc(C(=O)Nc2cccc(NC(=O)NC3=NN(c4c(Cl)cc(Cl)cc4Cl)C(=O)C3)c2)c1)OCC(CC)CCCC (centres unmarked) [(274)]

SMILES: CCCCOP(=O)(CCCOc1cc(OCCCP(=O)(OCCCC)OCCCC)cc(C(=O)Nc2cccc(NC(=O)NC3=NN(c4c(Cl)cc(Cl)cc4Cl)C(=O)C3)c2)c1)OCCCC [(273)]
Abs.max., first of two maxima (subsidiary maximum): 430 nm
Abs.max., second of two maxima (absorption maximum): 547 nm

SMILES: CCCCOP(=O)(CCCOc1cc(OCCCP(=O)(OCCCC)OCCCC)cc(C(=O)NC2=NN(c3c(Cl)cc(Cl)cc3Cl)C(=O)C2)c1)OCCCC [(221)]
Abs.max., first of two maxima (subsidiary maximum): 436 nm
Abs.max., second of two maxima (absorption maximum): 538 nm

SMILES: CCOP(=O)(CCCOc1cccc(C(=O)NC2=NN(c3c(Cl)cc(Cl)cc3Cl)C(=O)C2)c1)OCC [(202)]
Abs.max., first of two maxima (subsidiary maximum): 434 nm
Abs.max., second of two maxima (absorption maximum): 535 nm

SMILES: CCCCOP(=O)(CCCOc1cccc(C(=O)Nc2cccc(C(=O)NC3=NN(c4c(Cl)cc(Cl)cc4Cl)C(=O)C3)c2)c1)OCCCC [(220)]
Abs.max., first of two maxima (subsidiary maximum): 434 nm
Abs.max., second of two maxima (absorption maximum): 544 nm

SMILES: CC(C)OP(=O)(CCCOc1cc(OCCCP(=O)(OC(C)C)OC(C)C)cc(C(=O)Nc2cccc(C(=O)NC3=NN(c4ccccc4)C(=O)C3)c2)c1)OC(C)C [(238)]
Abs.max., first of two maxima (subsidiary maximum): 440 nm
Abs.max., second of two maxima (absorption maximum): 530 nm

SMILES: CCCCOP(=O)(CCCOc1ccc(C(=O)Nc2cccc(C(=O)NC3=NN(c4c(Cl)cc(Cl)cc4Cl)C(=O)C3)c2)c(OCCCP(=O)(OCCCC)OCCCC)c1)OCCCC [(248)]
Abs.max., first of two maxima (subsidiary maximum): 436 nm
Abs.max., second of two maxima (absorption maximum): 541 nm

SMILES: CCOP(=O)(CCCOc1cc(OCCCP(=O)(OCC)OCC)cc(C(=O)Nc2cccc(C(=O)NC3=NN(c4c(Cl)cc(Cl)cc4Cl)C(=O)C3)c2)c1)OCC [(216)]
Abs.max., first of two maxima (subsidiary maximum): 432 nm
Abs.max., second of two maxima (absorption maximum): 546 nm

SMILES: CCOP(=O)(CCCc1ccc(NC2=NN(c3ccccc3)C(=O)C2)cc1)OCC [(407)]
Abs.max., first of two maxima (subsidiary maximum): 429 nm
Abs.max., second of two maxima (absorption maximum): 527 nm

Abs.max., first of two maxima (subsidiary maximum): 440 nm
Abs.max., second of two maxima (absorption maximum): 536 nm
SMILES: CCCCC(CC)COP(=O)(CCCOc1cccc(C(=O)Nc2cccc(C(=O)NC3=NN(c4c(C)cc(OC)cc4Cl)C(=O)C3)c2)c1)OCC(CC)CCCC (centres unmarked) [(264)]

SMILES: CCCCOP(=O)(CCCOc1cccc(NC(=O)c2ccc3ccccc3c2O)c1)OCCCC [(602)]
Abs.max. (single maximum): 706 nm

SMILES: CCCCOP(=O)(CCCOc1cccc(NC(=O)CC(=O)c2ccccc2)c1)OCCCC [(123)]
Abs.max. (single maximum): 436 nm

Abs.max., first of two maxima (subsidiary maximum): 436 nm
Abs.max., second of two maxima (absorption maximum): 542 nm
SMILES: CCCCC(CC)COP(=O)(CCCOc1cccc(C(=O)Nc2cccc(C(=O)NC3=NN(c4c(Cl)cc(Cl)cc4Cl)C(=O)C3)c2)c1)OCC(CC)CCCC (centres unmarked) [(219)]
